Experimental data reported in the SangsterLogP compilation.

Experiment: method code SF-AS, from DOI: 10.1016/0165-022x(96)00008-5, PMID: 8844325

logP	SMILES
1.98	CC(C)(C)[N+]([O-])=Cc1ccc(Br)cc1
1.53	Cc1ccccc1C=[N+]([O-])C(C)(C)C
1	CC(C)(C)[N+]([O-])=Cc1cccc(O)c1
-0.15	CC1(C)C=[N+]([O-])C(C)(C)C1
-0.82	CC(C)(C)[N+]([O-])=Cc1cc[n+]([O-])cc1
1.31	CC(C)(C)[N+]([O-])=Cc1ccccc1O
1.19	COc1cc(OC)c(C=[N+]([O-])C(C)(C)C)c(OC)c1

More lines, now with the values behind:

SMILES	logP
COc1cccc(C=[N+]([O-])C(C)(C)C)c1	1.41
CC(C)(C)[N+]([O-])=Cc1cccc([N+](=O)[O-])c1	1.3
CC(C)(C)[N+]([O-])=Cc1ccncc1	0.4
CC(C)(C)[N+]([O-])=Cc1ccc(C#N)cc1	0.52
CC(C)(C)[N+]([O-])=Cc1ccccc1Br	2.52
CC(C)(C)[N+]([O-])=Cc1ccc(O)cc1	0.58
CC(C)(C)[N+]([O-])=Cc1ccc(C(=O)O)cc1	1.05
CC(C)(C)[N+]([O-])=Cc1ccc([N+](=O)[O-])cc1	1.39
CC1(C)CCC(C(F)(F)F)=[N+]1[O-]	0.2
CC(C)(C)[N+]([O-])=Cc1ccccc1[N+](=O)[O-]	0.84
CC1(C)CCC(c2ccccc2)=[N+]1[O-]	1.03
Cc1cccc(C=[N+]([O-])C(C)(C)C)c1	1.58
CC(C)(C)[N+]([O-])=Cc1ccc(Cl)cc1	2.39
